Test results published in patent US11535643B2, “Macrolides with modified desosamine sugars and uses thereof” (President and Fellows of Harvard College, priority 2015, dated 2022).
In brackets after ≈: the same amount, converted by molar mass. Read-outs that look alike come from different tables or passages of the source.

Assays:
Format in all cases: cell-based
[1] = tested on: S. aureus; assay: Broth dilution MIC determination (CLSI) against S. aureus strains; conditions: Staphylococcus aureus
Outline: (§1)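 CLSI broth dilution MIC; panel of unique strains incl. multidrug-resistant ones, focus on macrolide-resistance mechanisms; azithromycin, solithromycin as controls.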

[2] = tested on: S. pneumoniae; assay: Broth dilution MIC determination (CLSI) against S. pneumoniae strains; conditions: Streptococcus pneumoniae
Outline: as §1

[3] = tested on: S. pyogenes; assay: Broth dilution MIC determination (CLSI) against S. pyogenes strains; conditions: Streptococcus pyogenes
Outline: as §1

[4] = tested on: E. faecalis; assay: Broth dilution MIC determination (CLSI) against E. faecalis strains; conditions: Enterococcus faecalis
Outline: as §1

[5] = tested on: E. coli; assay: Broth dilution MIC determination (CLSI) against E. coli strains; conditions: Escherichia coli
Outline: as §1

[6] = tested on: A. baumannii; assay: Broth dilution MIC determination (CLSI) against A. baumannii strains; conditions: Acinetobacter baumannii
Outline: as §1

[7] = tested on: K. pneumoniae; assay: Broth dilution MIC determination (CLSI) against K. pneumoniae strains; conditions: Klebsiella pneumoniae
Outline: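 Azithromycin and solithromycin served as controls; MICs were obtained by standard CLSI broth dilution on a strain panel including multidrug-resistant and macrolide-resistant isolates.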

[8] = tested on: P. aeruginosa; assay: Broth dilution MIC determination (CLSI) against P. aeruginosa strains; conditions: Pseudomonas aeruginosa
Outline: as §1

[9] = tested on: H. influenzae; assay: Broth dilution MIC determination (CLSI) against H. influenzae strains; conditions: Haemophilus influenzae
Source text: Minimum inhibitory concentrations (MICs) for macrolides described herein have been determined for unique strains of S. aureus, S. pneumoniae, S. pyogenes, E. faecalis, E. coli, A. baumannii, K. pneumoniae, P. aeruginosa, and H. influenzae, including several multidrug-resistant strains, with a special focus on macrolide resistant mechanisms. Azithromycin and solithromycin were included as control compounds. CLSI standard procedures for broth dilution MIC determination were used. Data for exemplary compounds described herein is shown in Tables M1-M7 and in Tables N1-N4.

[10] = ATCC29213, ATCC29213, read-out: MIC S. aureus ATCC29213
[11] = MRSA / USA100, MRSA: USA100, read-out: MIC S. aureus MRSA: USA100
[12] = MRSA / USA300, MRSA: USA300, read-out: MIC S. aureus MRSA: USA300
[13] = USA600, USA600, GISA, read-out: MIC S. aureus USA600, GISA
[14] = read-out: MIC S. aureus erm A genotype
[15] = ATCC49619, ATCC49619, read-out: MIC S. pneumoniae ATCC49619
[16] = erm B + mef A genotype, read-out: MIC S. pneumoniae erm B + mef A genotype
[17] = erm B + tet(M, O) genotype, read-out: MIC S. pneumoniae erm B + tet(M, O) genotype
[18] = read-out: MIC S. pneumoniae mef A genotype, mef A genotype
[19] = read-out: MIC S. pneumoniae mef A genotype, mef A genotype, first of two such columns (c3)
[20] = ATCC19615, ATCC19615, read-out: MIC S. pyogenes ATCC19615
[21] = macrolide-resistant, read-out: MIC S. pyogenes macrolide-resistant
[22] = ATCC29212, ATCC29212, read-out: MIC E. faecalis ATCC29212
[23] = Vancomycin-resistant, read-out: MIC E. faecalis Vancomycin-resistant
[24] = ATCC25922, ATCC25922, read-out: MIC E. coli ATCC25922
[25] = read-out: MIC E. coli NDM-1, NDM-1
[26] = ATCC19606, ATCC19606, read-out: MIC A. baumannii ATCC19606
[27] = imipenem-resistant, read-out: MIC A. baumannii imipenem-resistant
[28] = ATCC10031, ATCC10031, read-out: MIC K. pneumoniae ATCC10031
[29] = KPC-2, read-out: MIC K. pneumoniae KPC-2
[30] = ATCC27853, read-out: MIC P. aeruginosa ATCC27853
[31] = ATCC49247, ATCC49247, read-out: MIC H. influenzae ATCC49247
[32] = erythro > 4, azithro 1, read-out: MIC H. influenzae erythro > 4, azithro 1

Row | Compound | MIC [1, 10] [µg/mL] | MIC [1, 11] [µg/mL] | MIC [1, 12] [µg/mL] | MIC [1, 13] [µg/mL] | MIC [1, 14] [µg/mL] | MIC [2, 15] [µg/mL] | MIC [2, 16] [µg/mL] | MIC [2, 17] [µg/mL] | MIC [2, 18] [µg/mL] | MIC [2, 19] [µg/mL] | MIC [3, 20] [µg/mL] | MIC [3, 21] [µg/mL] | MIC [4, 22] [µg/mL] | MIC [4, 23] [µg/mL] | MIC [5, 24] [µg/mL] | MIC [5, 25] [µg/mL] | MIC [6, 26] [µg/mL] | MIC [6, 27] [µg/mL] | MIC [7, 28] [µg/mL] | MIC [7, 29] [µg/mL] | further results
1 | CC[C@H]1OC(=O)[C@H](C)C(=O)[C@H](C)[C@@H](O[C@@H]2OC(CNC(=O)CN)CC(N(C)C)C2O)[C@](C)(OC)C[C@@H](C)CN[C@H](C)[C@H]2N(CCCCn3cc(-c4cccc(N)c4)nn3)C(=O)O[C@]12C (stereo partly drawn) [FSM-21878] | 32 (≈ 35.6 µM) | > 32 | > 32 | > 32 | > 32 | < 0.0313 | 4 | < 0.0313 | 8 (≈ 8.89 µM) | 0.5 (≈ 0.555 µM) | < 0.0313 | 4 (≈ 4.44 µM) | 16 (≈ 17.8 µM) | > 32 | > 32 | > 32 | > 32 | > 32 | 16 (≈ 17.8 µM) | > 32 | MIC [8, 30]: > 32 µg/mL; MIC [9, 31]: > 32 µg/mL; MIC [9, 32]: 32 µg/mL (≈ 35.6 µM)
2 | CC[C@H]1OC(=O)[C@H](C)C(=O)[C@H](C)[C@@H](O[C@@H]2OC(CNC(=O)CNC(C)(C)C)CC(N(C)C)C2O)[C@](C)(OC)C[C@@H](C)CN[C@H](C)[C@H]2N(CCCCn3cc(-c4cccc(N)c4)nn3)C(=O)O[C@]12C (stereo partly drawn) [FSM-21879] | 32 (≈ 33.5 µM) | > 32 | > 32 | > 32 | > 32 | < 0.0313 | 1 | < 0.0313 | 4 (≈ 4.18 µM) | 0.25 (≈ 0.261 µM) | < 0.0313 | 2 (≈ 2.09 µM) | 16 (≈ 16.7 µM) | > 32 | 32 (≈ 33.5 µM) | 32 (≈ 33.5 µM) | > 32 | > 32 | 8 (≈ 8.37 µM) | > 32 | MIC [8, 30]: > 32 µg/mL; MIC [9, 31]: 16 µg/mL (≈ 16.7 µM); MIC [9, 32]: 8 µg/mL (≈ 8.37 µM)
3 | CC[C@H]1OC(=O)[C@H](C)C(=O)[C@H](C)[C@@H](O[C@@H]2OC(CNC(=O)c3ccccc3)CC(N(C)C)C2O)[C@](C)(OC)C[C@@H](C)CN[C@H](C)[C@H]2N(CCCCn3cc(-c4cccc(N)c4)nn3)C(=O)O[C@]12C (stereo partly drawn) [FSM-21880] | 32 (≈ 33.8 µM) | > 32 | > 32 | > 32 | > 32 | < 0.0313 | 1 | < 0.0313 | 2 (≈ 2.11 µM) | 0.0625 (≈ 0.066 µM) | < 0.0313 | 1 (≈ 1.06 µM) | 4 (≈ 4.22 µM) | > 32 | 16 (≈ 16.9 µM) | 32 (≈ 33.8 µM) | > 32 | 32 (≈ 33.8 µM) | 8 (≈ 8.45 µM) | > 32 | MIC [8, 30]: > 32 µg/mL; MIC [9, 31]: 4 µg/mL (≈ 4.22 µM); MIC [9, 32]: 4 µg/mL (≈ 4.22 µM)
4 | CC[C@H]1OC(=O)[C@H](C)C(=O)[C@H](C)[C@@H](O[C@@H]2OC(CNC(=O)c3cnccn3)CC(N(C)C)C2O)[C@](C)(OC)C[C@@H](C)CN[C@H](C)[C@H]2N(CCCCn3cc(-c4cccc(N)c4)nn3)C(=O)O[C@]12C (stereo partly drawn) [FSM-21881] | 8 (≈ 8.43 µM) | > 32 | > 32 | > 32 | > 32 | ≤ 0.0312 | 4 | ≤ 0.0312 | 2 (≈ 2.11 µM) | 0.5 (≈ 0.527 µM) | ≤ 0.0312 | 2 (≈ 2.11 µM) | 2 (≈ 2.11 µM) | > 32 | 16 (≈ 16.9 µM) | > 32 | > 32 | > 32 | 8 (≈ 8.43 µM) | > 32 | MIC ([5]; read-out: MIC E. coli CTX-M-14, CTX-M-14): > 32 µg/mL; MIC ([5]; read-out: MIC E. coli TEM-1, TEM-1): 32 µg/mL (≈ 33.7 µM); MIC ([6]; IMP-4, read-out: MIC A. baumannii IMP-4): > 32 µg/mL; MIC ([6]; chromosomal class C, read-out: MIC A. baumannii chromosomal class C): > 32 µg/mL; MIC ([7]; SHV-12, read-out: MIC K. pneumoniae SHV-12): > 32 µg/mL; MIC ([7]; TEM-10, read-out: MIC K. pneumoniae TEM-10): 32 µg/mL (≈ 33.7 µM); MIC [8, 30]: > 32 µg/mL; MIC ([8]; read-out: MIC P. aeruginosa HPA101-1477): > 32 µg/mL; MIC [9, 31]: 8 µg/mL (≈ 8.43 µM); MIC [9, 32]: 2 µg/mL (≈ 2.11 µM)
